Values quoted from earlier work in patent publication US20260248756A1, “FAT COMPOSITION COMPRISING TRIBUTYRIN AND TRICAPROIN AND ITS USE IN MILK REPLACERS” (Nutreco IP Assets B.V., priority 2023, published 2026).

SMILES: CCCC(=O)OCC(COC(=O)CCC)OC(=O)CCC [tributyrin]
- total intake of solid feed (postweaning, tributyrin up to 0.6 wt % of dry matter in CMR): increased total intake of solid feed
- body weight compared with calves not fed tributyrin (weaning and postweaning period, 0.6 wt % of dry matter tributyrin in milk replacer): greater body weight
